SMILES strings stand for the structures.

The target of the test is T1, human granzyme B (Homo sapiens, UniProt P10144).
T1 construct: the first amino acid of mature granzyme B; hexa-histidine tag (N, cleaved yes); Factor Xa recognition site Ile-Glu-Gly-Arg (N, cleaved yes); honeybee melittin secretion signal (N, cleaved yes); made in house; host or cells: Sf9 insect cells (baculovirus, Bac-to-Bac)
T1 sequence (P10144 21-247): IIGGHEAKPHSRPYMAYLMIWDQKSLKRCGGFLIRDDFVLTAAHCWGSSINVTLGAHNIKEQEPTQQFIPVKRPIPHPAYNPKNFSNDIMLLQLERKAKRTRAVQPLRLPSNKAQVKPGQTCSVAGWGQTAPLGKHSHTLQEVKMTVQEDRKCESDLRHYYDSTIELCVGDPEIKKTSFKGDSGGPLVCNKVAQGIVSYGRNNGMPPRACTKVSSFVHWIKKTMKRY
The test is described as follows: Fluorogenic assay for granzyme B (Ac-IEPD-AMC substrate). In kind it is biochemical. The following applies: recombinant granzyme B, substrate Ac-IEPD-AMC 10 μM, pH 7.5, 25° C.; read-out: Gzm B Ki. The source says: Plasmids pMelBac and the TA Cloning Kit (pCR2.1) were purchased from Invitrogen (Carlsbad, Calif.). The Bac-to-Bac Baculovirus Expression System and all cell culture supplies were from Life Technologies (Gaithersburg, Md.). The human granzyme B protease has been identified and is known in the art. See, for example, Poe, et al., J. Biol. Chem. 266, 98-103. A vector was generated for secreted protein expression in the Bac-to-Bac system. The honeybee melittin secretion signal was amplified from pMelBac by PCR with primers 5′-GTGT AGATCTATGAAATTCTTAGTCAACG-3′ and 5′-TTCAGCAGAGTCGACTCCAAG-3′. The amplified product contained a BglII site upstream of the melittin secretion signal and spanned the multiple cloning site of the vector. The fragment was digested with BglII and EcoRI and subcloned into BamHI and EcoRI digested pFastBac. The resulting vector was designated pSecBac. Activatable tagged human granzyme B was cloned into pSecBac in two sequential steps. Firstly, mature granzyme B was amplified by PCR with primers 5′-GGATCC ATC GAA GGT CGT ATC ATC GGAGGACATGAGGCC-3′ and 5′-AAGCTTTTAGTAGCGCTTCATGGTCTTCTTTATCC-3′ and cloned into pCR2.1. In the sense primer, the bold type sequence coding for the Factor Xa recognition site, Ile-Glu-Gly-Arg, was inserted upstream of isoleucine 21 (referred to as ILE 16 in this paper using the numbering scheme for this family of serine proteases is traditionally based on the zymogen, chymotrypsinogen), the first amino acid of mature granzyme B. Secondly, hexa-histidine tagged, activatable granzyme B was amplified from the granzyme B/pCR2.1 clone by PCR using primers 5′-GGAAGATCTCATCATCATCATCATCATGGATCCATCGAAGGTCGTATC-3′ and 5′-CCT GAA TTC TTA GTA GCG TIT CAT GGT CTT CTT TAT CC-3′. The amplified product contained a Bali site upstream of the hex-histidine tag and contained the Factor Xa recognition sequence. This fragment was digested with Bali and ECOR and subcloned into BamHI and EcoRI digested pSecBac. The completed vector generated a recombinant baculovirus in Gibco BRL's Bac-to-Bac system, which would produce a secreted, 6-histidine tagged granzyme B. For protein expression, sf9 cells were grown to a density of 1.5×10^6 cells ml^−1 in Grace's medium (Cat. 11605-094) supplemented with 10% fetal calf serum and penicillin-streptomycin-glutamine (Cat. 10378-024). Prior to the addition of virus, cells were centrifuged at 1000×g for 15 minutes and resuspended to the same density in fresh growth medium containing recombinant viral stock and SP Sepharose beads (4 ml resin per liter of culture). After 72 hours of induction at 27° C., the resin was collected in a 50 micron Nylon mesh (PGC Scientifics), extensively washed with 50 mM Mes.NaOH, 0.3 M Na Cl, pH 6.6 and poured onto a column. The protein was eluted using a linear gradient (0.3 to 1.0 M) of NaCl. Fractions containing granzyme B activity were identified, combined and concentrated and then diluted in 20 mM Tris.HCl, pH 8.0. The sample was readjusted to a final pH 8.0, CaCl2 (3 mM final concentration) and factor Xa (Pharmacia, 10 units per mg of protein) were added, and incubated for 18 hours at room temperature to generate active granzyme B. Under these conditions, complete cleavage is achieved. The recombinant granzyme B was purified from the cleavage mixture using a 1 ml HiTrap SP column (Pharmacia). The yield can be as much as 4-5 mg of purified granzyme B per liter of culture. Mass spectral analysis identifies one major peak at 27,466 Da (other components of 27,320 Da and 26,630 Da were also consistently observed). Since the combined mass of the 227-amino acids defined by sequence analysis only accounts for 25,511.58 Da, we concluded that preparations of recombinant granzyme B purified with this method are more homogenous and less glycosylated than preparations of native granzyme B purified from NK cell granules. […]
As to `CC(=O)N[C@H](C(=O)N[C@H]1CCc2cccc3c2N(C1=O)[C@H](C(=O)NCc1c[nH]nn1)C3)C1CC1` [Example 32], the Ki came to 1020 nM.

In the case of `CC[C@H](C)[C@@H](C(=O)N[C@H]1CCc2cccc3c2N(C1=O)[C@H](C(=O)NCc1c[nH]nn1)C3)N1CCCC1=O` [Example 30], the Ki came out at 112 nM.

With `CC[C@H](C)[C@H](NC(C)=O)C(=O)N[C@H]1CCc2cccc3c2N(C1=O)[C@H](C(=O)NCc1nn[nH]n1)C3` [Example 1, (2S,5S)-5-[(N-acetyl-L-isoleucyl)amino]-4-oxo-N-(1H-tetraazol-5-ylmethyl)-1,2,4,5,6,7-hexahydroazepino[3,2,1-hi]indole-2-carboxamide], the Ki stood at 74 nM.

As to `CC(C)[C@@H](C(=O)N[C@H]1CCc2cccc3c2N(C1=O)[C@H](C(=O)NCc1nn[nH]n1)C3)c1ccccn1` [Example 21], the Ki is 410 nM.

As for `CC(=O)N[C@H](C(=O)N[C@H]1CCc2cccc3c2N(C1=O)[C@H](C(=O)NCc1c[nH]nn1)C3)C1CCCC1` [Example 33], the Ki came out at 71 nM.

Turning to `CC[C@H](C)[C@H](NC(=O)CN(C)C)C(=O)N[C@H]1CCc2cccc3c2N(C1=O)[C@H](C(=O)NCc1nn[nH]n1)C3` [Example 25], the Ki worked out at 203 nM.

With `CC(=O)N1CSC(C)(C)[C@H]1C(=O)N[C@H]1CCc2cccc3c2N(C1=O)[C@H](C(=O)NCc1c[nH]nn1)C3` [Example 29], the Ki amounted to 3880 nM.

Consider `CC[C@H](C)[C@H](NC(C)=O)C(=O)N[C@H]1CCc2cccc3c2N(C1=O)[C@H](C(=O)NCc1cn2cccnc2n1)C3` [Example 19], for which the Ki is 788 nM.

For `CC[C@H](C)[C@H](NC(=O)Cc1csc2ccccc12)C(=O)N[C@H]1CCc2cccc3c2N(C1=O)[C@H](C(=O)NCc1nn[nH]n1)C3` [Example 26], the Ki was 17 nM.

Consider `CC[C@H](C)[C@H](NC(=O)Cc1ccccc1)C(=O)N[C@H]1CCc2cccc3c2N(C1=O)[C@H](C(=O)NCc1c[nH]nn1)C3` [Example 4, (2S,5S)-4-oxo-5-{[N-(phenylacetyl)-L-isoleucyl]amino}-N-(1H-1,2,3-triazol-4-ylmethyl)-1,2,4,5,6,7-hexahydroazepino[3,2,1-hi]indole-2-carboxamide], for which the Ki turned out to be 13 nM.

Consider `O=C(CC1CCCC1)N[C@H]1CCc2cccc3c2N(C1=O)[C@H](C(=O)NCc1c[nH]nn1)C3` [Example 31], for which the Ki was determined as 1840 nM.

For the compound `CC[C@H](C)[C@H](NC(=O)Cc1csc2ccccc12)C(=O)N[C@H]1CCc2cccc3c2N(C1=O)[C@H](C(=O)NCc1c[nH]nn1)C3` [Example 28], the Ki came out at 7 nM.

On to `CC[C@H](C)[C@H](NC(=O)CN(C)C)C(=O)N[C@H]1CCc2cccc3c2N(C1=O)[C@H](C(=O)NCc1c[nH]nn1)C3` [Example 27], for which the Ki stood at 45 nM.

For `CC[C@H](C)[C@H](NC(=O)Cc1cccc(F)c1F)C(=O)N[C@H]1CCc2cccc3c2N(C1=O)[C@H](C(=O)NCc1nn[nH]n1)C3` [Example 24], the Ki worked out at 36 nM.

As to `CC[C@H](C)[C@H](NC(C)=O)C(=O)N[C@H]1CCc2cccc3c2N(C1=O)[C@H](C(=O)NCc1c[nH]nn1)C3` [Example 2, (2S,5S)-5-[(N-acetyl-L-isoleucyl)amino]-4-oxo-N-(1H-1,2,3-triazol-4-ylmethyl)-1,2,4,5,6,7-hexahydroazepino[3,2,1-hi]indole-2-carboxamide], the Ki amounted to 38 nM.

The values are drawn from patent publication US20060019945A1, “Granzyme b inhibitors” (priority 2002, published 2006).
